Data published in patent publication US7700633B2, “Organic compounds” (Novartis AG, priority 2005, dated 2010).

Columns and labels:
human PTP-1B = target: T1, human PTP-1B (Homo sapiens, UniProt P18031); experiment: PTP-1B inhibitory activity in vitro (IC50); type: biochemical
T1 construct: recombinant human PTP-1B[1-298] or PTP-1B[1-322]
T1 sequence (P18031 1-298 limits assumed): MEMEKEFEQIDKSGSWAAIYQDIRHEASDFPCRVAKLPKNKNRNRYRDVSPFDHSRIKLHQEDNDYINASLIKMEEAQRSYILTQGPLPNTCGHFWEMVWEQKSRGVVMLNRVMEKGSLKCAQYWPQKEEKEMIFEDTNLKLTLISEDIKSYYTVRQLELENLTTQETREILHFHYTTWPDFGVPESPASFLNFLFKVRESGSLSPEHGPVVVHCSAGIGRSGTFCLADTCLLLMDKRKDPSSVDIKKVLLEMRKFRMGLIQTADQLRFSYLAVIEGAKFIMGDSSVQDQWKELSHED
Method: Assessment of human PTP-1B (hPTP-1B) activity in the presence of various agents is determined by measuring the amount of inorganic phosphate released from a phosphopeptide substrate using a 96-well microtiter plate format. The assay (100 μL) is performed in an assay buffer comprised of 50 mM TRIS (pH 7.5), 50 mM NaCl, 3 mM DTT at ambient temperature. The assay is typically performed in the presence of 0.4% dimethyl sulfoxide (DMSO). However, concentrations as high as 10% are used with certain poorly soluble compounds. […] Inorganic phosphate, a product of the enzyme reaction, is quantitiated after 15 min as the green color resulting from complexing with the Malichite reagent and is determined as an A620 using a Molecular Devices (Sunnyvale, Calif.) SpectraMAX Plus spectrophotometer. […] Activity is defined as the net change in absorbance resulting from the activity of the uninhibited hPTP-1B[1-411] minus that of a tube with acid-inactivated hPTP-1B[1-411]. […]
Alternatively, the assessment of human PTP-1B activity in the presence of various agents may be determined by measuring the hydrolysis products of known competing substrates. For example, cleavage of substrate para-nitrophenylphosphate (pNPP) results in the release of the yellow-colored para-nitrophenol (pNP) which can be monitored in real time using a spectrophotometer. […]

Compound `COc1cc2cc(N3CC(=O)NS3(=O)=O)c(O)cc2oc1=O` [Example 70, 5-(7-Hydroxy-3-methoxy-2-oxo-2H-chromen-6-yl)-1,1-dioxo-1,2,5-thiadiazolidin-3-one] has a melting point of 226 to 228 °C.
For `O=C1CN(c2cc3cc(C4CCCC4)ccc3cc2O)S(=O)(=O)N1` [Example No. 22, 5-(7-Cyclopentyl-3-hydroxynaphthalen-2-yl)-1,1-dioxo-1,2,5-thiadiazolidin-3-one], the IC50 (human PTP-1B) was 85 nM.
In the case of `O=C1CN(c2cc3cc(C4CCCCC4)ccc3cc2O)S(=O)(=O)N1` [Example No. 23, 5-(7-Cyclohexyl-3-hydroxynaphthalen-2-yl)-1,1-dioxo-1,2,5-thiadiazolidin-3-one], the IC50 (human PTP-1B) is reported as 113 nM.
